Data set [1] can be described thus: Volume of distribution in mouse at 3 mg/kg, iv. It is filed as ADME, organism-based. On the set-up: dose 3 mg/kg, route intravenous. The settings on record: in vivo.
For another data set, the system named is Mus musculus. Briefly: Inhibition of estradiol-induced uterine edema in orally dosed BALB/c mouse edema model. Format: functional. Particulars: po.
Data set [2] in a line: AUC (0 to 24 hrs) in mouse plasma at 30 mg/kg/day. Format: ADME, organism-based. More on the design: dose 30 mg/kg/day, time < 24 hr.
Data set [3] relates to HT-1080. As to the kind of experiment: Inhibition of tumor growth in human HT1080 cells xenografted in SCID/Beige mouse at 30 mg/kg/day, bid relative to control. Particulars: HT-1080, read-out: TGI. For orientation: A xenograft is tissue or cells of one species grown in another, often human tumour cells in immunodeficient mice.
The nature of data set [4]: Clearance in mouse at 3 mg/kg, iv. Format: ADME, organism-based. On the set-up: dose 3 mg/kg, route intravenous. Particulars: in vivo.
Data set [5] deals with Tyrosine-protein kinase Lyn (Homo sapiens, UniProt P07948). Briefly: Inhibition of LYN by HTRF assay. Background: TR-FRET usually uses a lanthanide donor and a delayed reading to cut background.
Chain of Tyrosine-protein kinase Lyn (P07948 whole entry): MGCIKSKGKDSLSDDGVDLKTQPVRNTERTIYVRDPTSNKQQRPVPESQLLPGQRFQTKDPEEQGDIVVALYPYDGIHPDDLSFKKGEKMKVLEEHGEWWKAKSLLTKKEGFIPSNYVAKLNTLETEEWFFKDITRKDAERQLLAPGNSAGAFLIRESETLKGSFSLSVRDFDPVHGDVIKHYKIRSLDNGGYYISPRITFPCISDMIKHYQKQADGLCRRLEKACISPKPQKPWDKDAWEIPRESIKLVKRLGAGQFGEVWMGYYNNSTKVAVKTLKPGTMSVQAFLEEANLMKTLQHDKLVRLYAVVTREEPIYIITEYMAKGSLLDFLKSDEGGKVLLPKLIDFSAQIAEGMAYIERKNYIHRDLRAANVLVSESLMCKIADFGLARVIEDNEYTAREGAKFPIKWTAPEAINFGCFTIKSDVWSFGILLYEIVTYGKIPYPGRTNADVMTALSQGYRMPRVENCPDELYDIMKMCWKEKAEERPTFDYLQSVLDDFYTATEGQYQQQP
Data set [6] is described as follows: Half life in mouse at 3 mg/kg, iv. Format: ADME, organism-based. More on the design: dose 3 mg/kg, route intravenous. Particulars: in vivo.
Data set [7] is described as follows: Inhibition of FGFR by HTRF assay.
Data set [8] can be described thus: Volume of distribution in mouse at 1 mg/kg, iv. Format: ADME, organism-based. More on the design: dose 1 mg/kg, route intravenous. Particulars: in vivo.
For data set [9], the target named is Proto-oncogene tyrosine-protein kinase Src (Homo sapiens, UniProt P12931). Briefly: Inhibition of SRC by HTRF assay.
Chain of Proto-oncogene tyrosine-protein kinase Src (P12931 2-536 limits assumed): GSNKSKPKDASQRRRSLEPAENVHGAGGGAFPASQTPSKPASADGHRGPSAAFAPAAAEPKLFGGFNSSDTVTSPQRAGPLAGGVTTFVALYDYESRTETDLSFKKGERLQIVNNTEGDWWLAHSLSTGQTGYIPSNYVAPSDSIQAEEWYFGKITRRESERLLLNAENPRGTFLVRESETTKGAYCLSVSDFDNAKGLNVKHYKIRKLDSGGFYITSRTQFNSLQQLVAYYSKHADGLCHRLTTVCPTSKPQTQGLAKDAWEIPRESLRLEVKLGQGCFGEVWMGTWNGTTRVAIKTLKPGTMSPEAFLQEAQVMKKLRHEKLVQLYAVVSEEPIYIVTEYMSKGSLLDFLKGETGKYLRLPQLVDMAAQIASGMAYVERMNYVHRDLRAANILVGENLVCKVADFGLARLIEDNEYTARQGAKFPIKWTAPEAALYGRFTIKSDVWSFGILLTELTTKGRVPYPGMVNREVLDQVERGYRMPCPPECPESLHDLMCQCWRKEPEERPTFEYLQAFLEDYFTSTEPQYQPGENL
The target in data set [10] is Tyrosine-protein kinase HCK (Homo sapiens, UniProt P08631). As to the kind of experiment: Inhibition of HCK by HTRF assay.
Chain of Tyrosine-protein kinase HCK (P08631 whole entry): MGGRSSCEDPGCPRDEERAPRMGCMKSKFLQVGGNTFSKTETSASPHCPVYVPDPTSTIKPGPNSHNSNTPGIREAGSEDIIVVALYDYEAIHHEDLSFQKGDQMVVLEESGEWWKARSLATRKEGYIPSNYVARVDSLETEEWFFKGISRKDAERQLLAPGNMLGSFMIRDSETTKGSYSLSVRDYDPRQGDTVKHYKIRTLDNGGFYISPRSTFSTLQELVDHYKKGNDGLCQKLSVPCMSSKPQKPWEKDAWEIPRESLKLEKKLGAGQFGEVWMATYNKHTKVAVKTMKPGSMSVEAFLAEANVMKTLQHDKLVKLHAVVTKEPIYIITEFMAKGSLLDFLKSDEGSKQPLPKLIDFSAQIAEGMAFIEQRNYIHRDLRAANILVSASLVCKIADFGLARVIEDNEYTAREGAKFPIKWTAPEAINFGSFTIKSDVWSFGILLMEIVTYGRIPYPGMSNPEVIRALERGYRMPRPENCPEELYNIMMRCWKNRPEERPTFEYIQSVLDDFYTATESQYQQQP
The target in data set [11] is Mast/stem cell growth factor receptor Kit (Homo sapiens, UniProt P10721). As to the kind of experiment: Inhibition of KIT by HTRF assay.
Chain of Mast/stem cell growth factor receptor Kit (P10721 whole entry): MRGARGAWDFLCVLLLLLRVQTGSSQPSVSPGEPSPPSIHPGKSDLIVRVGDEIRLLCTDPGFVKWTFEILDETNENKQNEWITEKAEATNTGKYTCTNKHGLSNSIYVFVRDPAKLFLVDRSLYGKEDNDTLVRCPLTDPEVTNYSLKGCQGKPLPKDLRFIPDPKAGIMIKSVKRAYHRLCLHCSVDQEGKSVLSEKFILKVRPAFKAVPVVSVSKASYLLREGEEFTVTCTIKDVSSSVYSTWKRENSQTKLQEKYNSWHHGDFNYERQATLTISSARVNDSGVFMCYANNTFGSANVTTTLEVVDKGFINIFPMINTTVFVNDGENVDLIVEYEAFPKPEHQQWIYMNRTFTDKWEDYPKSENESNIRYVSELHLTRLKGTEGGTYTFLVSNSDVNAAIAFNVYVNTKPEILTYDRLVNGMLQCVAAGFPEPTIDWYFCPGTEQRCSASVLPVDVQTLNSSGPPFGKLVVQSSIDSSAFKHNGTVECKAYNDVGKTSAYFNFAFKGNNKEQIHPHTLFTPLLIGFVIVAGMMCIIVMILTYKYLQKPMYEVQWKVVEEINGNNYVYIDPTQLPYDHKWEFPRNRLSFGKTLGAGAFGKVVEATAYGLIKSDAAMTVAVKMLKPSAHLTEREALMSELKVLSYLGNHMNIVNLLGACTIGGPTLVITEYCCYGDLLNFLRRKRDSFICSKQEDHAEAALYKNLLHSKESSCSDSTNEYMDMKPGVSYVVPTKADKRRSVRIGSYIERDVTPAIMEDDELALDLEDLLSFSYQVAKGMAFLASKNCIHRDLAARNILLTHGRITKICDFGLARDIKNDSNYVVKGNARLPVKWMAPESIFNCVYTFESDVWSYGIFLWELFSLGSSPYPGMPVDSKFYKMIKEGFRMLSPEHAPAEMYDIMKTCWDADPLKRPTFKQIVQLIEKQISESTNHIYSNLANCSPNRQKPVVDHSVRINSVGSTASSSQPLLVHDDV
Data set [12] deals with HT-1080. Briefly: Inhibition of tumor growth in human HT1080 cells xenografted in SCID/Beige mouse at 10 mg/kg/day, bid relative to control. Format: functional. The settings on record: read-out: TGI.
The target in another data set is Angiopoietin-1 receptor (Homo sapiens, UniProt Q02763). Briefly: Inhibition of TIE2 by HTRF assay.
A short description of data set [13]: AUC (0 to 24 hrs) in mouse plasma at 10 mg/kg/day. It is filed as ADME, organism-based. More on the design: time < 24 hr, dose 10 mg/kg/day.
Data set [14] in a line: Clearance in mouse at 1 mg/kg, iv. More on the design: dose 1 mg/kg, route intravenous. The settings on record: in vivo. It is filed as ADME, organism-based.
The nature of data set [15]: Half life in mouse at 1 mg/kg, iv. It is filed as ADME, organism-based. On the set-up: dose 1 mg/kg, route intravenous. The settings on record: in vivo.
Data set [16] in a line: Oral bioavailability in mouse at 10 mg/kg. It is filed as ADME, organism-based. Particulars: in vivo.
Data set [17] deals with Platelet-derived growth factor receptor beta (Homo sapiens, UniProt P09619). Briefly: Inhibition of PDGFRbeta by HTRF assay.
The target in data set [18] is T1, Receptor-type tyrosine-protein kinase FLT3 (Homo sapiens, UniProt P36888).
T1 sequence (P36888 whole entry): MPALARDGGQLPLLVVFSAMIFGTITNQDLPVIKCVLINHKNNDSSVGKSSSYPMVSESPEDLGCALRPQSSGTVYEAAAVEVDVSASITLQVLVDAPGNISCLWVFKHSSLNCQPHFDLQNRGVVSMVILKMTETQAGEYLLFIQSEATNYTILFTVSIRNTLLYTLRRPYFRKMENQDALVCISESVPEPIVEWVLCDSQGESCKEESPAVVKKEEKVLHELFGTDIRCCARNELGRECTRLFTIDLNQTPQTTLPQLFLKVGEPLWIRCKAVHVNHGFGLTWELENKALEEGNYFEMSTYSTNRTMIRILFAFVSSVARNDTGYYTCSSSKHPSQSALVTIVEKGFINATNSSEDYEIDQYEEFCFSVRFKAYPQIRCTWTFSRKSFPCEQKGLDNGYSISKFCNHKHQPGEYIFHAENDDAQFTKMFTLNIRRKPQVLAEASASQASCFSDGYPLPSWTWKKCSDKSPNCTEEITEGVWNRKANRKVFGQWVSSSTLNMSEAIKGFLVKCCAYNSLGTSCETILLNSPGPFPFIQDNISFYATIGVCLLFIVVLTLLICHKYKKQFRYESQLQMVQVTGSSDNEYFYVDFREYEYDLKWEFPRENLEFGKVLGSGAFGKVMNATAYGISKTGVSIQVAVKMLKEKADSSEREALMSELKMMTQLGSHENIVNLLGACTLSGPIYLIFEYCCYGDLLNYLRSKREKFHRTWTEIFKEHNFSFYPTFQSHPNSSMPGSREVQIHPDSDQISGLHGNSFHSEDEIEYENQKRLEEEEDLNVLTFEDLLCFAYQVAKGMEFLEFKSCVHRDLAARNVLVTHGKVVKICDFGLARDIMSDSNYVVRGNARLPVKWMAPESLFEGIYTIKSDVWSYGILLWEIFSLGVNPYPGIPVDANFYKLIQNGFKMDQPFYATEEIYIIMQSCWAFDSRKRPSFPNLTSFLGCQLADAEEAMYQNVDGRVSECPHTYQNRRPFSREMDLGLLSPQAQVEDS
Description: Inhibition of FLT3 by HTRF assay

Data set [19] addresses Vascular endothelial growth factor receptor 1 (Homo sapiens, UniProt P17948). As to the kind of experiment: Inhibition of FLT1 by HTRF assay.
A short description of data set [20]: AUC in mouse at 10 mg/kg, po. It is filed as ADME, organism-based. On the set-up: dose 10 mg/kg, route oral. Particulars: plasma.
In data set [21] the target is Macrophage colony-stimulating factor 1 receptor (Homo sapiens, UniProt P07333). As to the kind of experiment: Inhibition of CSF1R by HTRF assay.
Chain of Macrophage colony-stimulating factor 1 receptor (P07333 whole entry): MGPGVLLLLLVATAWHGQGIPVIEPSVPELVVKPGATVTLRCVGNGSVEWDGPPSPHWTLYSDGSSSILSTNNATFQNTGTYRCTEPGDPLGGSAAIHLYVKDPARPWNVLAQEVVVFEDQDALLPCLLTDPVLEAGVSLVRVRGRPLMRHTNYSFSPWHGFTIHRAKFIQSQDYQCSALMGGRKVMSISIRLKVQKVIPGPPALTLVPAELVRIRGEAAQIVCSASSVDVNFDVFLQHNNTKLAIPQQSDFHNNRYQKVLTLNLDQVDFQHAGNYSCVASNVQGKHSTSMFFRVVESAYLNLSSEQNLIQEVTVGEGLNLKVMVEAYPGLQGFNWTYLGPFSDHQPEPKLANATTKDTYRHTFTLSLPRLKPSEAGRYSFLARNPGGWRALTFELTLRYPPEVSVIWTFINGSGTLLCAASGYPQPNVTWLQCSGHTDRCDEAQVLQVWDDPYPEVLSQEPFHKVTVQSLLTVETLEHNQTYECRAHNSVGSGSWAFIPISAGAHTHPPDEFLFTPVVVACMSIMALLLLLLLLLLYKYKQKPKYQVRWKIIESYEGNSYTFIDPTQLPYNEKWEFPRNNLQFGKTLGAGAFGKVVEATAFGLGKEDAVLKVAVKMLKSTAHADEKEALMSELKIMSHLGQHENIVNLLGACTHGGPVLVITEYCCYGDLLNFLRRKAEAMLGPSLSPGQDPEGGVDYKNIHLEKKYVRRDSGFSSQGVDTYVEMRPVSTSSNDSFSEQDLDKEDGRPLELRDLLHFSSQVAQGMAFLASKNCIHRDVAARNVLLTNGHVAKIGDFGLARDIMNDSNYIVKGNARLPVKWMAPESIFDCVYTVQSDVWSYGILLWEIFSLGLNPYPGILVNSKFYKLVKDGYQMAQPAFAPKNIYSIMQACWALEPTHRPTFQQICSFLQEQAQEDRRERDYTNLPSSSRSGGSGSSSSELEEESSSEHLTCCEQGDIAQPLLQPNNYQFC

Chain of Vascular endothelial growth factor receptor 1 (P17948 whole entry): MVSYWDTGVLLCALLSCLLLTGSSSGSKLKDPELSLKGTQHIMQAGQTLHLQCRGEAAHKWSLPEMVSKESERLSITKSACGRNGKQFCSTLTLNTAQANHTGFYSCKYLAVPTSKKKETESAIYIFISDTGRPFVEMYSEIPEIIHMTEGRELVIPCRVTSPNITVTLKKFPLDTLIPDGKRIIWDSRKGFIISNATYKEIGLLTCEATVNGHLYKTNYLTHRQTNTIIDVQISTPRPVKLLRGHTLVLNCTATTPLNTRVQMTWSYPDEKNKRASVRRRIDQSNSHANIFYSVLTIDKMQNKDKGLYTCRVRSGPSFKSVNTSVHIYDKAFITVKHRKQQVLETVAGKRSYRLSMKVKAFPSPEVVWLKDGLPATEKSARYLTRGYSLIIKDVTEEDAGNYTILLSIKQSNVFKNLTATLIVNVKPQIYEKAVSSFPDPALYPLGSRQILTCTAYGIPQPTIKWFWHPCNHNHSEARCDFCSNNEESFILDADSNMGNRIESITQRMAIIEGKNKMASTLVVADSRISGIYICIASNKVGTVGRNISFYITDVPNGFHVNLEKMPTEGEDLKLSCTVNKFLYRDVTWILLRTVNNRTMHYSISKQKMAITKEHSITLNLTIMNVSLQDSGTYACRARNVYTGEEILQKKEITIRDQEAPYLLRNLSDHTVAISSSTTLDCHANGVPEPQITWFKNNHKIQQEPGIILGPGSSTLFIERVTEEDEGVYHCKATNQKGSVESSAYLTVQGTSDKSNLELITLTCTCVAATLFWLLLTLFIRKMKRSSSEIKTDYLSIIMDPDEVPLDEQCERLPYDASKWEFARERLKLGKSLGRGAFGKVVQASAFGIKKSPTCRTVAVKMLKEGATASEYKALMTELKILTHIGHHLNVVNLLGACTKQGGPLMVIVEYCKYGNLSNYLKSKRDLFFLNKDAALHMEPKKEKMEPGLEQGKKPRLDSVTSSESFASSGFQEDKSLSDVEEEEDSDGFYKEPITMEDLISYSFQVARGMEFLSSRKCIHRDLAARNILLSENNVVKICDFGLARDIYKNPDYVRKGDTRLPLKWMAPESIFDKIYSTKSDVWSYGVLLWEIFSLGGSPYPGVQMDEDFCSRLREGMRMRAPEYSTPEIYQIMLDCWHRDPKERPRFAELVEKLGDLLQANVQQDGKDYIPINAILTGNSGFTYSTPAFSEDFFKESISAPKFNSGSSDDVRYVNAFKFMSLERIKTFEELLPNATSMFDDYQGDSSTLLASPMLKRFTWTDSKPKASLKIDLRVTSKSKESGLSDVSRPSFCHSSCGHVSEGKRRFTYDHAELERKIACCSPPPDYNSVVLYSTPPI

In general, Vd refers to the apparent volume that relates the amount in the body to the concentration in plasma or blood. High values mean extensive tissue distribution, low ones confinement near the circulation. A word on the ED50: it is the dose at which the effect has come halfway, by size or by number of responders. Read a high ED50 as weaker potency. A word on the AUC: it is the area under the concentration-time curve, a measure of exposure. A lower AUC goes with low exposure. The clearance is a measure of how efficiently the substance is removed, as volume per time. A high value points to a high capacity for elimination. By IC50 is commonly meant the concentration needed to halve the response being measured. Read a high IC50 as weaker potency. In general, half-life refers to the time in which the quantity being followed falls by half. Low readings indicate fast loss, high ones slow loss. With `Cc1ccc(F)c(NC(=O)Nc2ccc(-c3cccc4[nH]nc(N)c34)cc2)c1` [LINIFANIB], the Vd in [1] is 2.7 L/kg. Further, the ED50 in the data set with Mus musculus was found to be 0.4 mg/kg. Besides, the AUC at 24 h in [2] turned out to be 19.1 µM·h. Besides, the inhibition in vivo at 30 mg/kg/day with HT-1080 [3] amounted to 85%. Besides, in data set [4], the clearance was 18.3 mL/min/kg. Besides, in data set [5], the 50% inhibitory concentration (IC50) was > 50000 nM. The same molecule showed a half-life in [6] of 1.7 h.

What is called bioavailability is the share of a dose that reaches the circulation, judged against a reference dose that is usually intravenous. A lower bioavailability goes with poor availability. `COc1ccc(-c2ccc(NC(=O)Nc3cccc(C(F)(F)F)c3)cc2)c2c(N)noc12`: the IC50 is 3000 nM in data set [7]; > 50000 nM in data set [9]; > 50000 nM in [10]; 56 nM in [11]; > 50000 nM in [5]; 270 nM against Angiopoietin-1 receptor. The IC50 in [17] turned out to be 130 nM; in [18], 19 nM; in data set [19], 16 nM; in data set [21], 30 nM. In [8], this molecule showed a distribution volume (Vd) of 2.2 L/kg. The 50% effective dose (ED50) in the data set on Mus musculus stood at 2 mg/kg. In addition, the inhibition in vivo at 10 mg/kg/day in the data set on HT-1080 [12] was 81%. This molecule also showed an area under the curve (AUC) at 24 h in data set [13] of 13.2 µM·h. In [14], this molecule showed a clearance of 28.3 mL/min/kg. The molecule also showed a half-life in [15] of 0.9 h. In addition, the bioavailability in data set [16] turned out to be 100%. Further, in [20], the AUC worked out at 30.6 µM·h.

These data come from ChEMBL document CHEMBL1142358, “3-amino-benzo[d]isoxazoles as novel multitargeted inhibitors of receptor tyrosine kinases” (J Med Chem, 2008).
